Assay results from ChEMBL document CHEMBL1201862, “PubChem BioAssay data set” (2004).
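All cell lines were grown in 96-well plates and treated with compound for 48 hours. Here, GI50 denotes the concentration required for 50% inhibition of growth.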 Active and inactive are the calls of the source. Rule as the data show it: active = GI50 up to about 1.1 µM and inactive = higher.

Legend:
Experiment in all cases: NCI anticancer screen, dose series, 48 h
[1] = test system: A498
[2] = test system: A549
[3] = test system: CCRF-CEM
[4] = test system: COLO 205
[5] = test system: DLD-1
[6] = test system: DMS-114
[7] = test system: DMS-273
[8] = test system: EKVX
[9] = test system: HCC 2998
[10] = test system: HCT-116
[11] = test system: HCT-15
[12] = test system: HL-60
[13] = test system: HOP-18
[14] = test system: HOP-62
[15] = test system: HOP-92
[16] = test system: HT-29
[17] = test system: IGROV-1
[18] = test system: K562
[19] = test system: KM-20L2
[20] = test system: KM12
[21] = test system: LOX IMVI
[22] = test system: M19-MEL
[23] = test system: MCF7
[24] = test system: MOLT-4
[25] = test system: Malme-3M
[26] = test system: NCI-H226
[27] = test system: NCI-H23
[28] = test system: NCI-H460
[29] = test system: NCI-H522
[30] = test system: NCI/ADR-RES
[31] = test system: OVCAR-3
[32] = test system: OVCAR-4
[33] = test system: OVCAR-5
[34] = test system: OVCAR-8
[35] = test system: RPMI-8226
[36] = test system: RXF 393
[37] = test system: SF-268
[38] = test system: SF-295
[39] = test system: SF-539
[40] = test system: SK-MEL-28
[41] = test system: SK-MEL-2
[42] = test system: SK-MEL-5
[43] = test system: SK-OV-3
[44] = test system: SN12C
[45] = test system: SNB-19
[46] = test system: SNB-75
[47] = test system: SNB-78
[48] = test system: SW-620
[49] = test system: U-251
[50] = test system: UACC-257
[51] = test system: UACC-62
[52] = test system: UO-31
[53] = test system: XF498

## Cc1ccc(S(=O)(=O)Oc2cc(-c3ccccc3)nc3ccccc23)cc1
[1]
  GI50: 2.36 µM (inactive)
[2]
  GI50: 3.15 µM (inactive)
[3]
  GI50: 2.89 µM (inactive)
[4]
  GI50: 544 nM (active)
[5]
  GI50: 2.49 µM (inactive)
[6]
  GI50: 333 nM (active)
[7]
  GI50: 1.04 µM (active)
[8]
  GI50: 19.4 µM (inactive)
[9]
  GI50: 1 µM (active)
[10]
  GI50: 2.36 µM (inactive)
[11]
  GI50: 1410 nM
[12]
  GI50: 1.03 µM (active)
[13]
  GI50: 7.62 µM (inactive)
[14]
  GI50: 3.73 µM (inactive)
[15]
  GI50: 3.83 µM (inactive)
[16]
  GI50: 1.93 µM (inactive)
[17]
  GI50: 3.85 µM (inactive)
[18]
  GI50: 869 nM (active)
[19]
  GI50: 1.57 µM (inactive)
[20]
  GI50: 1.2 µM (inactive)
[21]
  GI50: 8.97 µM (inactive)
[22]
  GI50: 3.3 µM (inactive)
[23]
  GI50: 604 nM (active)
[24]
  GI50: 3.63 µM (inactive)
[25]
  GI50: 1.58 µM (inactive)
[26]
  GI50: 6.4 µM (inactive)
[27]
  GI50: 2.53 µM (inactive)
[28]
  GI50: 1.81 µM (inactive)
[29]
  GI50: 1.13 µM (inactive)
[30]
  GI50: 1.95 µM (inactive)
[31]
  GI50: 2.12 µM (inactive)
[32]
  GI50: 7.33 µM (inactive)
[33]
  GI50: 15.8 µM (inactive)
[34]
  GI50: 5.24 µM (inactive)
[35]
  GI50: 2.61 µM (inactive)
[36]
  GI50: 2.95 µM (inactive)
[37]
  GI50: 8.77 µM (inactive)
[38]
  GI50: 1.91 µM (inactive)
[39]
  GI50: 2.08 µM (inactive)
[40]
  GI50: 11.3 µM (inactive)
[41]
  GI50: 1.98 µM (inactive)
[42]
  GI50: 1.42 µM (inactive)
[43]
  GI50: 2.23 µM (inactive)
[44]
  GI50: 5.93 µM (inactive)
[45]
  GI50: 419 nM (active)
[46]
  GI50: 1.92 µM (inactive)
[47]
  GI50: 7.08 µM (inactive)
[48]
  GI50: 1.22 µM (inactive)
[49]
  GI50: 2.51 µM (inactive)
[50]
  GI50: 10 µM (inactive)
[51]
  GI50: 3.01 µM (inactive)
[52]
  GI50: 6.3 µM (inactive)
[53]
  GI50: 3.91 µM (inactive)
